# Reference: patent publication US5002753A, “Specific ligands for estrogen and progestagen steroid hormone receptors, application and intermediate synthesis products” (IRE-Celltarg S.A., priority 1988, dated 1991)
# Like-named read-outs stand apart in the source and are kept apart here.
# Columns and labels:
# [1] = system: MXT syngenetic mammary tumors; assay: Targeted radiotherapy of female BDF1 mice grafted with MXT syngenetic mammary tumors; assay type: in vivo
# Protocol: (§1) Twenty nine female BDF1 mice were grafted with MXT syngenetic mammary tumors implanted subcutaneously. Fourteen mice received three intravenous injections of 100 μCi of 11beta-chloromethyl-17-iodovinyl- ^123 I of E isomerism at fortnightly intervals.
# (§2) The 100 μCi of labeled hormone were injected diluted in 200 μl of solution containing 9 g/l NaCl, 5% ethanol and 1% of Tween 80. The fifteen control mice received 200 μl of the NaCl/ethanol/Tween solution on the same dates.
# [2] = Acute toxicity in mice grafted with MXT mammary tumors; assay type: in vivo, female BDF1 mice; conditions: three i.v. injections of 100 μCi at fortnightly intervals, period of 60 days
# Protocol: as §1, §2
# estrogen receptors = target: T1, estrogen receptors (Homo sapiens, UniProt P03372); assay: Inhibition of the fixation of tritiated estradiol on cytosols of MCF7 mammary human tumor; assay type: binding; conditions: 25° C, MCF7 cytosol
# T1 construct: cytosols of MCF7 mammary human tumor rich in estrogen receptors; endogenous in cells; host or cells: MCF7 human mammary tumor, cytosol
# T1 sequence (P03372 1-595): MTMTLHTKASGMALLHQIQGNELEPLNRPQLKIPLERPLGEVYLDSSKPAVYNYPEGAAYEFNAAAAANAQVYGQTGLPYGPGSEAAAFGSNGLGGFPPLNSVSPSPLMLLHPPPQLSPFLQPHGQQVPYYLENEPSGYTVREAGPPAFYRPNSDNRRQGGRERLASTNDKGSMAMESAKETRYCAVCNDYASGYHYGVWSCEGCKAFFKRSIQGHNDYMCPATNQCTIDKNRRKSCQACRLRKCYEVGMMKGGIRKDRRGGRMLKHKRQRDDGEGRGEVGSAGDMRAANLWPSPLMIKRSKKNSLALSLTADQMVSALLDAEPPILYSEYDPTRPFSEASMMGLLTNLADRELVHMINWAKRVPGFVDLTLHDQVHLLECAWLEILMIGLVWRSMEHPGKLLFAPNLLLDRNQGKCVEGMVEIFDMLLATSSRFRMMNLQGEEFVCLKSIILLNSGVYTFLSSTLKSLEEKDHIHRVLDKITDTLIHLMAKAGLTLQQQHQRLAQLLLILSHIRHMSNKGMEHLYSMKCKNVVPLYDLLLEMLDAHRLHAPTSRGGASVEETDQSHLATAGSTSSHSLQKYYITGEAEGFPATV
# [3] = Hydrophobicity index based on retention time in reverse phase HPLC; assay type: physicochemical; set-up: retention time (hydrophobicity index): dose or concentration left out as unconfirmed; conditions: for retention time (hydrophobicity index): HPLC reverse phase, microBondapack C18, 1 ml/min of ethanol in H2O
# [4] = Stability of the radioiodinated product in column eluate (60% ethanol) at -20° C; assay type: physicochemical
# Protocol: The method is the same as for the labelling of (14').
# The starting material is the derivative (15').
# The HPLC separation conditions are different: the mobile phase is 60% ethanol in water, the flow rate is 1 ml/min, the final product is collected at 12 minutes. The labeled product is kept as such in the column eluate (60% ethanol). In these conditions, it is stable for at least 12 days at -20° C. (deiodination less than 2%).
# [5] = Biodistribution of 125I-labeled Z isomer (16') in ovarectomized BDF1 mice; assay type: in vivo; conditions: for tissue uptake at 2 h / tissue uptake at 24 h: mouse, 1 uCi, 1 μCi 125I, ± S.D.
# Protocol: The biodistribution of the Z isomer (16') in ovarectomized BDF mice is highly favorable.
# 8 ovarectomized BDF1 mice were injected with 1 μCi of 11beta-chloromethyl-17alpha-(2-iodovinyl)estradiol-(^125 I). 4 mice were sacrificed 2 hours after the estradiolinjection and 4 24 hours after the injection.
# estrogen receptor = target: T2, estrogen receptor (Bos taurus, UniProt P49884); assay: Tests of binding of calf uterus cytosol to the estrogen receptor
# T2 sequence (P49884 1-596): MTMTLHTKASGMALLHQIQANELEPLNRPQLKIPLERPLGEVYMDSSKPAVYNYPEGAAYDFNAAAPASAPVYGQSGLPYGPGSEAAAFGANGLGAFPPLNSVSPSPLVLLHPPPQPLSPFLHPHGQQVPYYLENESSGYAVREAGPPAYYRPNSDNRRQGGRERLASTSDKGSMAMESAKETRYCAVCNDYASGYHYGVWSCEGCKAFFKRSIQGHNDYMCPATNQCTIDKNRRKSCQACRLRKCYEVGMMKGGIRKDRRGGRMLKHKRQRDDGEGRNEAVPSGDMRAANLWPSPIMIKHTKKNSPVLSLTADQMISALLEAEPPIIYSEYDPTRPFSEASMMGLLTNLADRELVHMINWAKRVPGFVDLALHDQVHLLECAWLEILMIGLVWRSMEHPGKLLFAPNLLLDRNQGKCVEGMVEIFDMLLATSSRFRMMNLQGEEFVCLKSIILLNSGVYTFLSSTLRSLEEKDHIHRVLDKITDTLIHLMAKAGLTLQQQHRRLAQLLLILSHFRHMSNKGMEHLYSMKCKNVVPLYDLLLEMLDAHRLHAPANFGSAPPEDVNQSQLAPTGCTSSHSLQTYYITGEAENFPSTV
# Text: The nonspecific binding to the transport proteins is diminished by virtue of the presence of the 11-beta and 17-alpha groups.
# [6] = rat, in vivo, 1440 min; cited from earlier work
# [7] = blood, read-out: % injected dose/g of tissue, blood
# [8] = fat, read-out: % injected dose/g of tissue, fat
# [9] = kidneys, read-out: % injected dose/g of tissue, kidneys
# [10] = liver, read-out: % injected dose/g of tissue, liver
# [11] = muscle, read-out: % injected dose/g of tissue, muscle
# [12] = spleen, read-out: % injected dose/g of tissue, spleen
# [13] = uterus, read-out: % injected dose/g of tissue, uterus
compound,measurement,setting,value
"C[C@]12C[C@H](CCl)[C@@H]3c4ccc(O)cc4CC[C@H]3[C@@H]1CC[C@@]2(O)/C=C/[123I] [11beta-chloromethyl-17-iodovinyl- ^123 I of E isomerism, 11Beta-Chloromethyl-17-Iodovinylestradiol-^123 I]","tumor growth compared with the control group, % of the average tumor growth","[1]; day 18, three i.v. injections of 100 μCi at fortnightly intervals",lower than 45%
same,tumor growth compared with the control group (in words),[1]; three i.v. injections of 100 μCi at fortnightly intervals,significant slowing down of the tumor growth
same,survival,[1]; versus control group,better survival
same,acute toxicity,[2],No acute toxicity was detected
C[C@]12C[C@H](CCl)[C@@H]3c4ccc(O)cc4CC[C@H]3[C@@H]1CC[C@@]2(O)C=CI [11beta-chloromethyl-17-iodovinylestradiol],affinity (in words),estrogen receptors,an affinity comparable with that of 11beta-chloromethylestradiol and clearly superior to that of estradiol
same,relative binding affinity,estrogen receptors; versus estradiol,"greater than 1,000"
"C[C@]12C[C@H](CCl)[C@@H]3c4ccc(O)cc4CC[C@H]3[C@@H]1CC[C@@]2(O)/C=C/I [14', (E)-11-chloromethyl-3,17β-dihydroxy-17α-(2iodovinyl)-1,3,5(10)-estratriene]",retention time (hydrophobicity index),[3],14.3 min
"C[C@]12C[C@H](CCl)[C@@H]3c4ccc(O)cc4CC[C@H]3[C@@H]1CC[C@@]2(O)/C=C\I [16', (Z)-11beta-chloromethyl-3,17beta-dihydroxy17alpha-(2-iodovinyl)-1,3,5(10)-estratriene]",degraded at 288 h,[4]; 60% ethanol,< 2%
same,stable for at least (storage stability of labeled product),"[4]; column eluate (60% ethanol), -20° C",at least 12 days
same,retention time (hydrophobicity index),[3],12.1 min
same,"hydrophobicity, Z isomer versus E isomer (in words)",[3]; comparison of Z with E isomer,less hydrophobic than the E isomer
same,uterus/blood concentration ratio,[5]; 2 h,6.16
same,uterus/fat concentration ratio,[5]; 2 h,2.90
same,uterus/liver concentration ratio,[5]; 2 h,1.30
same,uterus/muscle concentration ratio,[5]; 2 h,7.48
same,uterus/blood concentration ratio,[5]; 24 h,65.80
same,uterus/fat concentration ratio,[5]; 24 h,35.42
same,uterus/liver concentration ratio,[5]; 24 h,10.12
same,uterus/muscle concentration ratio,[5]; 24 h,92.10
same,tissue uptake at 2 h,[5]; [7],1.08 ± 0.24 %ID/g
same,tissue uptake at 24 h,[5]; [7],0.14 ± 0.02 %ID/g
same,tissue uptake at 2 h,[5]; [8],2.29 ± 0.25 %ID/g
same,tissue uptake at 24 h,[5]; [8],0.26 ± 0.09 %ID/g
same,tissue uptake at 2 h,[5]; [9],1.84 ± 0.27 %ID/g
same,tissue uptake at 24 h,[5]; [9],0.2 ± 0.02 %ID/g
same,tissue uptake at 2 h,[5]; [10],5.1 ± 0.72 %ID/g
same,tissue uptake at 24 h,[5]; [10],0.91 ± 0.05 %ID/g
same,tissue uptake at 2 h,[5]; [11],0.89 ± 0.07 %ID/g
same,tissue uptake at 24 h,[5]; [11],0.1 %ID/g
same,tissue uptake at 2 h,[5]; [12],0.97 ± 0.18 %ID/g
same,tissue uptake at 24 h,[5]; [12],0.12 ± 0.01 %ID/g
same,tissue uptake at 2 h,[5]; [13],6.66 ± 0.91 %ID/g
same,tissue uptake at 24 h,[5]; [13],9.21 ± 1.44 %ID/g
same,binding to the estrogen receptor (in words),"estrogen receptor; 25° C, 1 h, final 5 mM, versus tritiated estradiol",binding of the same order as the tritiated estradiol
same,nonspecific binding,"estrogen receptor; 25° C, 1 h, saturating dose (final 5 mM), calf uterus cytosol",23%
same,nonspecific binding to the transport proteins (in words),estrogen receptor; versus tritiated estradiol,diminished
same,sensitivity level (in words),"estrogen receptor; versus tritiated estradiol, by virtue of the higher specific activity",higher sensitivity level
"CCC1C[C@@]2(C)[C@@H](CCC2(O)C=C[125I])[C@@H]2CCc3cc(O)ccc3[C@@H]12 (stereo partly shown) [I-125 17-iodovinyl-11-ethylestradiol, 17-iodovinyl-11-ethylestradiol]",uterus/blood ratio,[6],40.4
same,uterus/liver ratio,[6],3.89
same,uterus/lung ratio,[6],52.8
